Experimental data as given in patent US11643691B2, “Predictive biomarkers for cancer immunotherapy and methods of using same” (Duke University, priority 2018, dated 2023).

Assays:
[1] = test system: CD8+ T cell proliferation; test: T cell proliferation assay (CellTrace Violet dilution, OT-1 splenocytes with conditioned DCs); type: cell-based, mice; conditions: DCs pre-treated, LPS stimulated
Procedure: T Cell Proliferation Assay: Splenocytes of OT-1 mice (H-2b) were isolated and stained with CellTrace Violet (ThermoFisher). Preconditioned DCs were loaded with ovalbumin peptide SIINFEKL, and co-cultured at a DC:splenocyte ratio of 40,000:120,000 cells for 72 hrs. CD8+ T cell proliferation was measured by the dilution of Cell Trace Violet dye by flow cytometry.

CD4+FoxP3+ Treg cells = test: In vitro Treg cell assay (conditioned DCs with naive CD4+ T cells); type: cell-based, mice; conditions: for DC-mediated Treg cell differentiation in vitro: treated DCs co-cultured with naive CD4+ T cells
Procedure: (§1) Dendritic Cell Conditioning: DCs were treated with Wnt3a (100 ng/mL), Wnt5a (200 ng/mL), LPS (1 μg/mL), 1-MT (1 mM), 2DG (1 mM), or ETO (100 μM), 2-DG(2-deoxy-d-glucose, 1 mM), Oligomycin (1 μM), succinylacetone (250 μM), or vehicle control either for 24 or 48 hrs prior to their use in both in vitro and in vivo experiments.
Treg Cell Assays: For in vivo Treg cell assays, DCs (C57, H-2b) were pre-treated for 48 hours and delivered by intradermal injection into the footpad of Foxp3-mRFP mice. Draining inguinal and popliteal lymph nodes were resected 5 days later and analyzed for CD4+Foxp3+ Treg cells. For in vitro Treg cell assays, DCs (Balb/c, H-2d) were pre-treated for either 24 or 48 hrs, and re-plated at a 1:3 DC:T-cell ratio with purified allogeneic naive Foxp3-mRFP(H-2b) CD44loCD62LhiCD4+ Tcells. These co-cultures were incubated for 6 days and quantitated for CD4+FoxP3+ Treg cells by flow cytometry.

DCs [2] = test: Extracellular acidification rate (ECAR), Seahorse XFe24 flux analysis of DCs; type: cell-based, Murine
Procedure: as §1
(§2) Cellular Energy Metabolism Analysis: DC energy metabolism was measured using the XFe24 extracellular flux analyzer (Seahorse Bioscience), with the glycolysis stress test kit and the mitochondrial stress test kit as previously described (Everts et al., 2014, Zhao and Klimecki, 2015). For experiments involving LPS injection, DCs were plated in XFe24 plates (200,000/well in 500p1) and treated with LPS for 48 hours prior to XF analysis. DCs were washed and analyzed in XF media (RPMI without sodium bicarbonate, 10 mM glucose, 1% FBS, 2 mM L-glutamine). ECAR was analyzed in real-time with or without LPS stimulation. For experiments involving BrafV600EPten−/− cell line-derived conditioned media (CM), collected CM was concentrated and desalted with an Amicon Ultra 30K filter according to manufacturer's recommendations (Milipore). Final concentrate was further washed with XF media 3 times, added to DCs immediately prior to OCR analysis. For standard ECAR analysis, XF media (without glucose) was used to wash cells prior to the assay. A final concentration of 10 mM glucose, 1 μM oligomycin, 50 mM 2-DG(sigma) were injected through XFe24 port A-C. For standard OCR analysis, XF media (with 10 mM glucose) was used to wash cells, a final concentration of 1 μM oligomycin, 1.5 μM FCCP (fluoro-carbonyl cyanide phenylhydrazone), 100 nM rotenone, and 1 μM of antimycin-A (Sigma) were injected through XFe24 port A-C.

[3] = test system: syngeneic BRAF^V600EPTEN^−/− melanomas; test: Syngeneic melanoma study with NLRP3i and anti-PD-1 ab; type: in vivo
Procedure: (A) Treatment of syngeneic BRAF^V600EPTEN^−/− melanomas with IgG isotype control ab (200 μg ip every 3 days), NLRP3i (MCC950 10 μg ip every 3 days), anti-PD-1 ab (200 μg ip every 3 days), or both NLRP3i and anti-PD-1 ab combination therapy (n=8). (B) Gr-MDSC flow cytometry analysis of resected BRAF^V600EPTEN^−/− melanomas following treatment with IgG isotype control ab, NLRP3i, anti-PD-1 ab, or both NLRP3i and anti-PD-1 ab combination therapy (n=4). top, representative flow cytometry dot plot. (C) CD8^+ T cell flow cytometry analysis of resected BRAF^V600EPTEN^−/− melanomas following treatment with IgG isotype control ab, NLRP3i, anti-PD-1 ab, or both NLRP3i and anti-PD-1 ab combination therapy (n=4). All data is mean±SEM. *P<0.05.
As depicted in FIG. 21A, NLRP3 inhibition can be combined with a […] (e.g. PD-1 inhibitor) to augment the anti-tumor effect of the PD-1 inhibitor therapy.

DCs [4] = test: Oxygen consumption rate (OCR) / OXPHOS, Seahorse XFe24 flux analysis of murine DCs; type: cell-based; conditions: DCs pre-treated
Procedure: as §1
as §2, with “A final concentration of 10 mM glucose, 1 μM oligomycin, 50 mM 2-DG(sigma) were injected through XFe24 port A-C. For standard OCR analysis, XF media (with 10 mM glucose) was used to wash cells, a final concentration of 1 μM oligomycin, 1.5 μM FCCP (fluoro-carbonyl cyanide phenylhydrazone), 100 nM rotenone, and 1 μM of antimycin-A (Sigma) were injected through XFe24 port A-C.” left out

DCs [5] = test: qRT-PCR / qPCR array / immunoblot gene expression in DCs; type: cell-based, Murine
Procedure: Dendritic Cell Conditioning: DCs were treated with Wnt3a (100 ng/mL), Wnt5a (200 ng/mL), LPS (1 μg/mL), 1-MT (1 mM), 2DG (1 mM), or ETO (100 μM), 2-DG(2-deoxy-d-glucose, 1 mM), Oligomycin (1 μM), succinylacetone (250 μM), […]
Antibodies, Immunoprecipitation, and Immunoblot Analysis: Primary antibodies including CPT1A (Cell signaling), PPAR-γ (Santa Cruz Biotechnology), β-catenin, β-actin (Millipore), p-AMPK(T172)/AMPK (Cell signaling), p-AKT(T308)/Akt (Cell Signaling) were used at 1:1000. Secondary antibodies including goat anti-rabbit IgG-HRP (Millipore) and goat anti-mouse IgG-HRP (Millipore) were used at 1:5000. Cells were lysed in Laemmli sample buffer after treatment and subjected to SDS-polyacrylamide gel electrophoresis and immunoblot analysis. For immunoprecipitation, cells were lysed in radio immunoprecipitation assay (RIPA) buffer [10 mM sodium phosphate (pH 8.0), 150 mM NaCl, 1% Triton X-100, 1% sodium deoxycholate, and 0.1% SDS in the presence of 1 mM DTT, 1 mM phenylmethylsulfonylfluoride, and a protease inhibitor cocktail (Sigma)], precleared with protein A beads, and then incubated with 1 μg of antibody against β-catenin or isotype control IgG with protein A-agarose beads on a rotator overnight at 4° C. After 3 washes with RIPA buffer, immunoprecipitated complexes were eluted in sample buffer by boiling and subjected to immunoblot analysis. Immunoblots were visualized by chemiluminescence substrate (ThermoFisher) and imaged by a ChemiDoc XRSplus system (BioRad).
RNA Isolation, RT-qPCR, qPCR Array: Total RNA was isolated by RNeasy Plus Mini Kit(Qiagen). RNA(500 ng) were used in cDNA Synthesis (iScript, BioRad). Quantification of mRNA for genes involved in PPARγ signaling was performed using Mouse PrimePCR PPAR Array according to the manufacturer's protocol (BioRad). Real-time PCR was performed using an ABI7500 Real-Time PCR system (Life Technologies). Data analysis utilized the PrimePCR Analysis Software (BioRad). Conventional qPCR was performed using validated primers, and SsoAdvanced Universal SYBR Green Super mix (BioRad) or Taqman probes (Applied Biosystems) for heme synthesis enzymes.

DCs [6] = test: PpIX flow cytometry analysis and hemin colorimetric assay; type: cell-based, Murine
Procedure: IDO enzymatic assay and Hemin assay: DC IDO enzyme activity was measured by the conversion of L-tryptophan to L-kynurenine in conditioned media by HPLC (Pallotta et al., 2011). Intracellular hemin was measured using a colorimetric assay kit (BioVision).
PpIX Analysis: DCs were terminally incubated in the presence of 1 mM δ-aminolevulinic acid (ALA) for 4 hrs. Intracellular PpIX was analyzed by flow cytometry as previously described (Hryhorenko et al., 1998).

O=CC[C@@H](O)[C@H](O)[C@H](O)CO [2-DG, 2-Deoxy-D-glucose, reference compound]
LPS-induced DC-mediated antigen-specific T cell proliferation [1]: suppresses LPS-induced DC-mediated antigen-specific T cell proliferation | DC-mediated Treg cell differentiation in vitro (CD4+FoxP3+ Treg cells): enhanced Treg cell differentiation in vitro

NC(=O)c1ncn([C@@H]2O[C@H](CO)[C@@H](O)[C@H]2O)c1N [AICAR, reference compound]
LPS-induced glycolytic surge (ECAR) (DCs [2]; DCs pre-treated): antagonize the glycolytic surge required for DC maturation

CC(C)(O)c1coc(S(=O)(=O)NC(=O)Nc2c3c(cc4c2CCC4)CCC3)c1 [MCC950]
efficacy of anti-PD-1 ab immunotherapy ([3]; NLRP3i added to anti-PD-1 ab): Enhances the Efficacy of Anti-PD-1 Ab Immunotherapy | Gr-MDSC recruitment (Ly6G+ Gr-MDSCs) ([3]; flow cytometry of resected melanomas): Suppresses Gr-MDSC Recruitment

Oc1nc(-c2ccc(C(F)(F)F)cc2)nc2c1CSCC2 [XAV939, reference compound]
glycolysis in DCs (ECAR) (DCs [2]): promoted glycolysis in DCs

CC[C@H]1/C=C/C=C/C[C@@H](C)[C@H](O)[C@@](C)(O)C(=O)[C@@H](C)[C@H](O)[C@@H](C)C(=O)[C@@H](C)[C@H](O)[C@@H](C)/C=C/C(=O)O[C@@H]2[C@H](C)[C@H](CC1)O[C@]1(CC[C@H](C)[C@H](C[C@@H](C)O)O1)[C@H]2C [oligomycin, Oligomycin]
DC-mediated Treg cell differentiation in vitro (CD4+FoxP3+ Treg cells): eliminated these Treg cell populations

CC(=O)CC(=O)CCC(=O)O [succinylacetone, 4,6-Dioxoheptanoic acid]
ability of Wnt5a-conditioned DCs to drive Treg cell differentiation in vitro (CD4+FoxP3+ Treg cells; Wnt5a plus inhibitor): significantly abrogated the ability of Wnt5a-stimulated DCs to promote Treg cell generation

Wnt3a
glycolysis in DCs (ECAR) (DCs [2]): no changes | OXPHOS in DCs (OCR) (DCs [4]): no changes | expression of Alas1 and further enzymes of PpIX synthesis (DCs [5]; qRT-PCR): not | PPAR-γ (Pparg) and CPT1A (Cpt1a) expression (DCs [5]; real-time qPCR and immunoblot, murine and human DCs for rWnt5a): failed to induce expression of both PPAR-γ and CPT1A in DCs | DC-mediated Treg cell differentiation in vitro (CD4+FoxP3+ Treg cells): failed to condition DCs to promote Treg cell differentiation | DC concentrations of PpIX and hemin (DCs [6]): failed to enhance PpIX synthesis in DCs
